“Also recorded” adds a separate entry of the source. Where no end group is shown, it is not given here.
How the values were obtained:
[1] = tested on: overt diabetic NOD (Non-Obese Diabetic) mice; conditions: previously overt diabetic NOD mice; literature study; cited from earlier work
[2] = tested on: BALB/c pancreatic islets; assay: Insulin secretion of isolated islets in low and high glucose (EIA/ELISA); assay type: cell-based, mouse; conditions: 3 days culture, LSF 50 μM, Ex-4 20 nM, 3 mM then 28 mM glucose, one-hour incubation
Procedure: FIG. 1 depicts the amount of insulin in the supernate sample as determined by EIA after one-hour incubation with each of 3 mM and subsequent 28 mM glucose medium.
(§1) For in vitro studies (Examples 1-3), freshly isolated BALB/c pancreatic islets were incubated at 37° C. with either LSF (50 μM) alone, Ex-4 (20 nM) alone, or with LSF/Ex-4 combined. After 3 days of culture, islets were treated with or without pro-inflammatory cytokines (10 ng/mL IL-1β, 20 ng/mL TNF-α, and 100 ng/mL IFN-γ) overnight. Insulin secretion was measured in low and high glucose using a standard elisa method for mouse insulin. Apoptotic islets were quantitatively assessed. MTT assay was used to evaluate cell metabolism and mitochondrial function.
(See FIG. 1 in which “*” and “^” indicate P<0.005 compared to “none” treatment group).

[3] = tested on: NOD mouse pancreatic sections; assay: Brdu staining of NOD mouse pancreatic sections (cell proliferation in vivo); conditions: diabetic NOD mice treated 28 days via mini-pumps; Brdu 50 mg/kg I.P., tissue 24 hours later
Procedure: FIG. 6 depicts results of Brdu staining of NOD mouse pancreatic sections treated with saline (control), Ex-4 alone, LSF alone and LSF and Ex-4 combined, respectively.
Ex-4/LSF-associated cell proliferation in vivo was evaluated. Diabetic NOD mice that were treated with Ex-4 alone, Ex-4 plus LSF, LSF alone and normal saline for 28 days via mini-pumps were injected with Brdu (50 mg/kg) I.P. 24 hours later, pancreatic tissues were collected and stained with an anti-Brdu antibody.

[4] = tested on: human islets; conditions: previously published; cited from earlier work
[5] = tested on: mouse islets exposed to pro-inflammatory cytokines (IL-1β, TNF-α, IFN-γ); assay: Apoptosis of mouse islets exposed to pro-inflammatory cytokines; assay type: cell-based; conditions: LSF 50 μM, Ex-4 20 nM; 10 ng/mL IL-1β, 20 ng/mL TNF-α, 100 ng/mL IFN-γ overnight
Procedure: FIG. 2 depicts the effect in apoptosis reduction in isolated mouse islets after individual and combined treatment of LSF and Ex-4 in vitro.
as §1
Cellular death (apoptosis) was quantified using an established method in mouse islets exposed to pro-inflammatory cytokines.

[6] = tested on: mouse islets; assay: MTT assay of cell metabolism and mitochondrial function in isolated islets; assay type: cell-based; conditions: LSF 50 μM, Ex-4 20 nM
Procedure: FIG. 3 depicts the effect of mitochondrial metabolism (as reflected by level of MTT metabolite) observed in isolated mouse islets after individual and combined treatment with LSF and Ex-4.
as §1
We previously published, in murine β-cell lines and human islets that both ATP production and mitochondrial metabolism (MTT metabolite levels) were increased by LSF treatment.

[7] = tested on: murine β-cell lines; conditions: previously published; cited from earlier work
[8] = tested on: non-obese diabetic (NOD) mice; assay: Reversal of established diabetes in NOD mice, blood glucose monitoring, 28-day osmotic mini-pump; assay type: in vivo, mouse; conditions: LSF 27 mg/kg/day, Ex-4 18 nM/day
Procedure: FIG. 4 depicts average levels of blood glucose in 4 NOD mice groups treated with saline (control), Ex-4 alone, LSF alone and LSF and Ex-4 combined, respectively.
Pre-diabetic non-obese diabetic (NOD) mice were monitored until two consecutive blood glucose readings within a week were above 250 mg/dL. This indicated the animals had already become diabetic. At this point a mini-osmotic pump was filled with one of the following and implanted subcutaneously: • Normal saline (control) • Ex-4 • LSF • Ex-4 and LSF
Blood glucose levels in these mice were monitored, and a small dose of insulin was administered to the hyperglycemic mice to maintain euglycemia for the first few days. The pump was removed after 28 days, discontinuing treatment with the drug; however, the blood glucose levels were continually monitored for several more weeks. These mice were then sacrificed, and slide sections were prepared from their pancreases to evaluated histology and insulin staining (Example 5) and evidence for growth the new beta cells (Example 6).
These NOD were spontaneously diabetic between 20-25 weeks of age. The control groups include normal saline, LSF alone (27 mg/kg/day) and Ex-4 alone (18 nM/day). […] Four mice were in each group. Diabetes reversal was seen within 2-3 days after implantation of LSF/Ex-4 pumps, while hyperglycemia was controlled 10-12 days after LSF alone pump therapy.

Compound | effect on hyperglycemia [1] | insulin release upon glucose stimulation [2] | Brdu-positive cells in pancreatic tissue [3] | ATP production and mitochondrial metabolism (MTT metabolite levels) [4] | protection of islet cells from pro-inflammatory cytokines [5] | mitochondrial metabolism (MTT metabolite level) [6] | ATP production and mitochondrial metabolism (MTT metabolite levels) [7] | time after pump implantation until diabetes reversal / hyperglycemia controlled ([8]; diabetic NOD mice, S.C. mini-pump) [days] | diabetes reversal / control of hyperglycemia during pump therapy ([8]; newly diagnosed diabetic NOD mice, S.C. osmotic mini-pump, 28 days)
glucagon-like peptide-1 (HAEGTFTSDVSSYLEGQAAKEFIAWLVKGR; ends and bridges not checked; UniProt P01275 98-127, looked up) [GLP-1, "incretin synthesized in the small and large intestine by the L-type cells ... released in response to food ingestion"] | no effect | – | – | – | – | – | – | – | –
C[C@@H](O)CCCCn1c(=O)c2c(ncn2C)n(C)c1=O [LSF, Lisofylline] | – | increase insulin release | detected | increased | could protect isolated islet cells | increase mitochondrial metabolism | increased | 10 to 12 | moderate ability to control blood glucose levels; also recorded: prevented worsening of hyperglycemia

Reference: patent US7393827B2, “Pharmaceutical compositions and methods for restoring β-cell mass and function” (Diakine Therapeutics, Inc., priority 2004, dated 2008)
